According to patent publication US20230181905A1, “Systems, Devices, and Methods for Enhancing the Neuroprotective Effects of Non-Invasive Gamma Stimulation with Pharmacological Agents” (Massachusetts Institute of Technology, priority 2021, published 2023):

Legend:
Type in all cases: in vivo, mouse
[1] = tested on: aggrecan; test: Aggrecan immunohistochemistry around PV interneurons; settings: 5×FAD mice, visual cortex; Plx3397 50 days
Description: These observations led to examination of the effect of Plx3397 administration on neuronal integrity. […] Indeed, it was observed that Plx3397 administration increased WFA+(Wisteria floribunda agglutinin, a PNN marker) PNN signals (au, 289400000±9384029 versus 213000000±16633300 in controls) (FIG. 22A, 22F), while aggrecan (a component in PNN) signals were […] specifically around PV interneurons in Plx3397 administered 5×FAD mice (12.34±0.4791 versus 7.837±0.3549 in controls) (FIG. 22A, 22G).

[2] = tested on: myelin basic protein (MBP); test: MBP levels and myelination of PV axons; settings: 5×FAD mice
Description: It was next sought to understand whether Plx3397 administration-dependent electrophysiological alterations were attributed to changes in amyloid plaque levels. […] In the cuprizone model of demyelination, Plx33977 administration preserved myelin. It was thus considered whether electrophysiological alterations are associated with myelin levels in Plx3397 treated 5×FAD mice.
These observations point to synaptic connectivity, PNN extracellular architecture, and myelination as biological processes that GENUS impacts to improve the outcomes in Plx3397 administered 5×FAD mice. To further validate this, additional biochemical analyses were performed. […] Next, it was observed that Plx3397 (130.4±7.178), GENUS (116.2±5.225) and Plx3397+GENUS (119.0±6.325) all increased the WFA signals with the highest levels in Plx3397 alone group compared to controls (100±4.655) (FIGS. 25D, 25F). […] Synaptic input arriving within the PNN of parvalbumin (PV) interneurons and the PNN architecture are shown to modulate the activity of PV interneurons robustly. […] Next, although the total MBP levels was not affected (100±19.58, 132.4±30.10, 140.2±25.31, & 133.4±22.13 in control, Plx3397, GENUS, Plx3397+Genus groups, respectively), GENUS increased myelin ensheathment of axons of PV interneurons in Plx3397 administered 5×AFAD mice (20.75±1.45, 25.44±2.83, 37.91±4.56, & 31.3±3.21) (FIGS. 25D, 25H, 25I and FIG. 30C). Collectively, these findings show improved synaptic connectivity and axonal myelination of PV interneurons after repeated GENUS in Plx3397 administered 5×FAD mice.

[3] = tested on: CSF1R resistant progenitor-like MAC2+ microglia; test: MAC2+ microglia immunohistochemistry; settings: 5×FAD mice; Plx3397 diet 50 days vs control
Experimental: To study how CSF1R-sensitive microglia impact neural activity in the context of AD, an amyloidosis mouse model, the 5×FAD mice—which is a most commonly used mouse model for AD, was subject to a diet containing CSF1R inhibitor Plx3397 for 50 days (FIG. 21A). The CSF1R inhibitor Plx3397 (600 ppm) was employed, which was previously shown to effectively reduce microglia in vivo. Control mice were age-matched 5×FAD litters that received a regular diet. Electrophysiological recordings were performed using linear probes. Post-recording, the recording site in the visual cortex was verified by histology (FIG. 21), and microglia reduction was evaluated by assessing IBA1+ cell numbers.
Microglia: Iba1 immunoreactive cells were considered microglia. Using an LSM 710 or LSM 880 with a 10× (for Iba1+ cell counts) or 40× (for morphological analysis) objective z stacks of the entire slice thickness […] with […] step size were acquired. Imaris was used for 3D rendering of images to quantify the total volume of microglia. MAC2+ cells were counted manually using Image J.

[4] = tested on: IBA1+ microglia; test: Iba1+ microglia counts in APOE4-KI 5×FAD hippocampus
Experimental: Hippocampal mouse brain sections were stained for Iba1, a microglia/macrophage specific marker, and cell numbers were counted. […] Next, 7-8 month old male APOE4-KI 5×FAD animals were treated with 3 weeks of PLX3397 diet (or control), followed by 21 days of A+V GENUS, during which animals remained on their diets (FIG. 37).

## FC(F)(F)c1ccc(CNc2ccc(Cc3c[nH]c4ncc(Cl)cc34)cn2)cn1 [Plx3397, Pexidartinib]
[1]
  aggrecan signals around PV interneurons: 12.34±0.4791
[2]; hippocampus, chronic Plx3397 vs control
  MBP levels: did not affect
[2]; visual cortex, Plx3397 50 days, not significantly affected
  overall MBP signals: 953800000±1277515477 au
[2]; western blot, control 100±19.58, not affected
  total MBP levels: 132.4±30.10
[2]; control 20.75±1.45
  myelin ensheathment of axons of PV interneurons: 25.44±2.83
[3]
  CSF1R resistant progenitor-like MAC2+ microglia: no difference
[4]; APOE4-KI 5×FAD mice on PLX3397 diet
  microglia numbers (Iba1+ cell counts), GENUS vs no GENUS after depletion: not further modified
[4]; male APOE4-KI 5×FAD mice, hippocampus, PLX3397 diet vs standard diet
  microglia numbers: significant reduction
